Entries after “also recorded” stand apart in the source; their conditions may differ. Bridge positions count the residues as written; N and C are the ends. Ends that are not written are not given here.

One data set has as its system SH-SY5Y cells. In words: Antiapoptotic assay (etoposide-induced cell death, caspase-3/7 activity). Particulars: etoposide 10 μM and peptide 10 μM added at the same time, caspase-3/7 activity after 6 h, n ≥ 3 independent experiments. The data set is classed as cell-based, human.
Data set [1] can be described thus: Stability in simulated gastric fluid (SGF). Type of data set: in vitro ADME, porcine. As to the method: (§1) We exposed TFF3(C^57Acm) and TFF3 homodimer to simulated gastric fluid (SGF, containing pepsin, pH 1.3) and simulated intestinal fluid (SIF, containing pancreatic enzymes, pH 6.8), and monitored the mixture over 24 h by analytical RP-HPLC and MS. The N- and C-termini of TFF3 and its homodimer were readily truncated in both SGF and SIF (Figure 4A,B). In SGF, TFF3 was cleaved at Leu^6/Ser^7 followed by cleavage at Glu^54/Ala^55 (t1/2 < 5 min). In SIF, TFF3 was cleaved first at Thr^58/Phe^59 followed by cleavage at Leu^6/Ser^7, Glu^56/Cys^57, and Ala^55/Glu^56 (t1/2 < 5 min). TFF3 homodimer, in both SGF (t1/2 ∼ 40 min) and SIF (t1/2 < 5 min), was first broken down to monomeric TFF3 through simultaneous cleavage at Leu^6 and Glu^54 or Ala^55, eventually leading to the same metabolites as TFF3 (Figure 4B).
(§2) Simulated gastric fluid (SGF) was prepared by dissolving 20 mg of NaCl and 8 mg of pepsin in 70 μL of concentrated HCl (32%), and the volume was diluted to 10 mL with Milli-Q water (pH 1.3).[76],[77] Simulated intestinal fluid (SIF) was prepared by dissolving 68 mg of KH2PO4 in 500 μL of Milli-Q water followed by the addition of 800 μL of 0.2 M NaOH and 100 mg of porcine pancreatin, and the volume was adjusted to 10 mL with Milli-Q water (pH 6.8).[76],[77] Peptide stock solution (1 mM; 15 μL) was added to SGF (285 μL) or SIF (285 μL) and incubated at 37 °C. Samples (30 μL) from SGF and SIF were taken at 0, 5, 15, and 30 min and 1, 2, 4, 8, and 24 h timepoints and subsequently quenched with 30 μL of 0.2 M Na2CO3 (SGF) or 30 μL of 5% aqueous TFA (SIF). The samples were analyzed by analytical RP-HPLC (30 μL) and/or LC-MS (20 μL). The amount of peptide remaining was determined by measuring the peak area and expressing it as a % of the peak area at time 0. Peptide half-life (t1/2) was determined from the peptide degradation profiles using an exponential one-phase decay fit in Prism (version 7, GraphPad, La Jolla). LC-MS analysis was performed in a Q-Star Pulsar mass spectrometer (SCIEX, Ontario, Canada), and the raw data spectra were processed using the peptide reconstruction tool in the BioAnalyst software to identify the mass of the metabolites. The stability of the disulfide bonds was assessed through incubation of the peptides (10 μM) with 10 equiv of reduced glutathione (GSH; 100 μM) in sodium phosphate (50 mM) buffer at pH 7.2. Samples were taken at timepoints 0, 4, 8, and 24 h, quenched by adding 10% TFA, and analyzed by analytical RP-HPLC using an analytical C3 column (Agilent Zorbax SB-C3, 5 μm, 2.1 mm × 250 mm, 300 Å).

The nature of data set [2]: Stability in simulated intestinal fluid (SIF). Type of data set: in vitro ADME. Particulars: pig, simulated intestinal fluid (SIF) with porcine pancreatin. As to the method: as §1, §2
The test system of another data set is porcine pancreatin. In words: simulated intestinal fluid (SIF, containing pancreatic enzymes, pH 6.8). Particulars: 37 °C, up to 24 h.
The next data set concerns pepsin. In words: simulated gastric fluid (SGF, containing pepsin, pH 1.3). Particulars: porcine, 37 °C, up to 24 h.
The next data set has as its target T1, CXCR4 (Homo sapiens, UniProt P61073).
T1 construct: expressed in transfected cells; host or cells: COS-7 (African green monkey), transient co-transfection with GαΔ6qi4myr
In words: Inositol 1 phosphate (IP1) accumulation assay (HTRF) in COS-7 cells transfected with CXCR4. The conditions noted are these: COS-7 transiently co-transfected with CXCR4-eYFP and chimeric GαΔ6qi4myr; stimulation 1 h, 37 °C, triplicate; HTRF; n ≥ 2 independent experiments; read-out: EC50 (CXCR4 activation, IP1 accumulation). Type of data set: cell-based. From the text: CXCR4 is a member of the G protein-coupled receptor (GPCR) family[58] and proposed as a target receptor for TFF3 to mediate wound healing.[30],[39] We therefore pharmacologically characterized TFF3(C^57Acm) and TFF3 homodimer at CXCR4. We used a chimeric Gαiq protein to switch the pathway to the Gαq signaling, which leads to the activation of the phospholipase and allows measurement of CXCR4 activation through the production of inositol 1 phosphate (IP1).[61]−[63] We measured IP1 accumulation upon stimulation with TFF3(C^57Acm) and TFF3 homodimer in fibroblast-like COS-7 cells transiently transfected with CXCR4.[58] This is a competitive immunoassay, based on the HTRF technology, where native IP1 produced by cells compete with labeled IP1 (acceptor) for binding to anti-IP1-cryptate (donor). The specific signal (i.e., Förster resonance energy transfer, FRET) is inversely proportional to the concentration of IP1 in the sample. The calculation of the fluorescence ratio eliminates possible medium interferences.[64]
COS-7 cells (fibroblast-like cells from African green monkey) were transiently co-transfected with the CXCR4 C-terminally fused to eYFP in pVitro2 vector and the untagged chimeric G protein GαΔ6qi4myr in pcDNA3.1 plasmid using Metafectene Pro according to manufacturer’s protocol. The cells were cultured in DMEM with higher glucose and supplemented with 10% FCS without any antibiotics at 37 °C and 5% CO2 in 95% humidity. Cisbio IP-One Gq assay kit was used according to previous description with minor modifications to measure activity.[80] Briefly, a standard curve was prepared in HBSS (Hanks’ balanced salt solution) with 20 mM LiCl to determine the linear range of the assay and 10 000 cells/well were cultured overnight in a 384-well flat white plate (Greiner Bio-one GmbH, Frickenhausen, Germany). TFF3 and its homodimer as well as CXCL12 were diluted in HBSS containing 20 mM LiCl. Stimulation was carried out for 1 h in triplicate at 37 °C. Subsequently, 3 μL of IP1-d2 and 3 μL of Ab-cryptate in lysis buffer were added to the wells and incubated on a tumbler for 60 min at 25 °C. Fluorescence was then measured at 620 and 665 nm and the HTRF (homogeneous time-resolved fluorescence) ratio (665/620 nm) was calculated. Data analysis was performed with Prism (version 7, GraphPad, La Jolla). Tested compounds were normalized to CXCL12 wild type, with the highest HTRF ratio set to 0% and the lowest HTRF ratio set to 100% response. […] The final concentration range of 10^–12 to 10^–5 M to CXCL12 and 1 or 10 μM to TFF3(C^57Acm) and TFF3 homodimer was achieved by adding the compounds from a threefold concentrated stock solution.
For orientation: Time-resolved FRET reads energy transfer from a long-lived donor to a nearby acceptor.

A further data set deals with trypsin. Description: trypsin.

T1 sequence (P61073 whole entry): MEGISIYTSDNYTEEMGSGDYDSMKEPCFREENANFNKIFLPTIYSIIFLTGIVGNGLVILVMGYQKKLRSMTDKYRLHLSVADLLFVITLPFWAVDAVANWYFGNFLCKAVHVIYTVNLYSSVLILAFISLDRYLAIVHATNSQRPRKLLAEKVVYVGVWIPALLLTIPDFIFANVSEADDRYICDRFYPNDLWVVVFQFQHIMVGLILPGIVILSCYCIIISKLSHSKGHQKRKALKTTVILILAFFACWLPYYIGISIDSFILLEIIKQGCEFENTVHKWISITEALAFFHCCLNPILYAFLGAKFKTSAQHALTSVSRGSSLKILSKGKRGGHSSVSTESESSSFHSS
Procedure for SH-SY5Y cells: (A) Cell death was induced with etoposide (10 μM), and cells were treated with 10 μM of TFF3. Etoposide and TFF3 were added at the same time. Caspase-3/7 activity was measured after 6 h. […] Z-DEVD-FMK (50 μM; caspase-3 inhibitor) was used as the positive control. E: etoposide, E + C3I: etoposide + caspase-3 inhibitor. One-way analysis of variance (ANOVA) followed by Dunnett correction was performed to assess differences between treated cells and etoposide only. *p < 0.05, **p < 0.01.
SH-SY5Y cells were seeded (13–15 × 10^3 cells/well) in 96-well microplates in DMEM with 10% (v/v) fetal calf serum (FCS; Gibco), 2 mM L-glutamine, and 100 units/mL penicillin/streptomycin. The media was replaced with low riboflavin, complete Ham’s F12 medium with 10% (v/v) fetal calf serum, 2 mM L-glutamine, and 100 units/mL penicillin/streptomycin before the live-cell imaging. Cells were treated with the etoposide or the caspase-3 inhibitor or TFF3(C^57Acm) or TFF3 homodimer in the presence of IncuCyte caspase-3/7 green apoptosis reagent. Data were acquired using an IncuCyte ZOOM instrument with standard scan type setting (4 images per well) every 2 h for 48 h.

The term half-life denotes the time in which the quantity being followed falls by half. “SANQCAVPAKDRVDCGYPHVTPKECNNRGCCFDSRIPGVPWCFKPLQE-NH2 (disulfide 5-31, 15-30, 25-42) [TFF3_7-54]”: the “reduction of etoposide-induced cell death (caspase-3/7 active objects)” value with SH-SY5Y cells is “active in the anti-apoptosis assay, equivalent to TFF3 and TFF3 homodimer”. Also, the “stability in SGF over 24 h (in words)” value in data set [1] (SGF with pepsin, pH 1.3, 37 °C, 24 h, RP-HPLC and MS) is listed as “remained stable”. Also, the half-life at 50 μM in data set [1] (simulated gastric fluid (SGF) with pepsin, pH 1.3, 15 μL of 1 mM stock in 285 μL, 37 °C, monitored over 24 h, RP-HPLC/LC-MS, read-out: half-life in SGF) was > 24 h; in data set [2] (pH 6.8, 15 μL of 1 mM stock in 285 μL, 37 °C, monitored over 24 h, RP-HPLC/LC-MS, read-out: half-life in SIF), > 24 h. Further, the metabolised at 24 h, 50 μM in data set [2] (pH 6.8, 37 °C, 24 h, RP-HPLC/MS, read-out: degradation in SIF within 24 h) was ~25%.

In the case of “EEYVGLSANQCAVPAKDRVDCGYPHVTPKECNNRGCCFDSRIPGVPWCFKPLQEAEC(Acm)TF”, the cleaved bond result is “Thr58-Phe59, first_seen; also recorded: Leu6-Ser7; also recorded: Glu56-Cys57; also recorded: Ala55-Glu56” in the data set on porcine pancreatin and “Leu6-Ser7, first_seen; also recorded: Glu54-Ala55” in the data set with pepsin.

As for “S^7ANQCAVPAKDRVDCGYPHVTPKECNNRGCCFDSRIPGVPWCFKPLQEA^55”, the not cleaved entry with porcine pancreatin is given as “remained stable even after 24 h”.

One may read the EC50 as the concentration needed to bring the measured effect to its halfway point. Consider “CXCL12: natural CXCR4 ligand; recombinant human CXCL12 from E. coli with additional N-terminal methionine; positive control [reference compound]”, for which the EC50 with CXCR4 was 5.9 nM.

Regarding “SANQCAVPAKDRVDCGYPHVTPKECNNRGCCFDSRIPGVPWCFKPLQE”, the not cleaved entry in the data set with pepsin is reported as “stable in SGF with a half-life over 24 h”.

On to “QCAVPAKDRVDCGYPHVTPKECNNRGCCFDSRIPGVPWCFK”, for which the not cleaved result with pepsin was “stable in SGF for 24 h”. In the data set with trypsin, the cleaved bond result is “cleavages at Lys^16, Arg^18, and Arg^41; also recorded: Arg41-Ile42”; the fragment found result is recorded as “Glu^30-Arg^34; also recorded: Ile^42-Lys^50”.

(Values after article PMC8273887 (Journal of Medicinal Chemistry, 2021).)
